We go through 23 compounds from US9540343B2 (Gilead Sciences, Inc., priority 2011, dated 2017).

Each structure is given as a SMILES string.

Data set [1] is described as follows: in vitro. The method, boiled down: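 Cytoprotection read-out: CellTiter-Glo chemiluminescence after 5 days at 37 °C of HIV-IIIb-infected MT-4 cells (m.o.i. 0.003) with compound in 10-point 3-fold dilutions, quadruplicate, 10% FBS. Cytotoxicity (CC50) measured identically without virus.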
Data set [2] deals with HIV-IIIb. Description: Test A: Antiviral assay in MT4 cells. It is filed as cell-based, HIV-1. The following applies: MT-4 cells infected with HIV-IIIb, 5 days, CellTiter-Glo; for inhibition at 2 µM: Human immunodeficiency virus 1, IIIB, MT4, 120 h, read-out: % inhibition at 2 μM, percent inhibition of virus-induced cell killing, from dose response curve at 2 uM drug. In general terms: In ATP-based viability assays light output follows the ATP content of the culture.

Setting [3] is: human, uninfected MT-4 cells, CC50 (nM), same protocol as Test A, CellTiter-Glo.
[4] abbreviates: human, CC50 (nM), uninfected MT-4 cells, same protocol as Test A, CellTiter-Glo.

As usually defined, the CC50 is the concentration giving 50% cytotoxicity. Higher therefore signals lower toxicity to the cells. The term inhibition denotes the drop in the measured response relative to a control, in per cent. `NC(=O)c1cc(-c2cccnc2[C@H](Cc2cc(F)cc(F)c2)NC(=O)Cn2ccc3ccc(Cl)cc32)ccc1F` [Example 494, (S)-5-(2-(1-(2-(6-chloro-1H-indol-1-yl)acetamido)-2-(3,5-difluorophenyl)ethyl)pyridin-3-yl)-2-fluorobenzamide] had a CC50 at 5 days in data set [1] (setting [3]) of 10400 nM. The inhibition at 2 µM in data set [2] is 17%.

`CC(=O)c1c(C)n(CC(=O)N[C@@H](Cc2cc(F)cc(F)c2)c2ncccc2-c2cccc(C(N)=O)c2)c2ccccc12` [Example 495, (S)-3-(2-(1-(2-(3-acetyl-2-methyl-1H-indol-1-yl)acetamido)-2-(3,5-difluorophenyl)ethyl)pyridin-3-yl)benzamide] yielded a CC50 at 5 days in data set [1] (setting [4]) of 15500 nM. Besides, the inhibition at 2 µM in data set [2] came to 85%.

Consider `CC(C)(C)OC(=O)Nc1ccc2[nH]cc(CC(=O)N[C@@H](Cc3cc(F)cc(F)c3)c3ncccc3-c3cccc(C(N)=O)c3)c2c1` [Example 496B, (S)-tert-butyl 3-(2-(1-(3-(3-carbamoylphenyl)pyridin-2-yl)-2-(3,5-difluorophenyl)ethylamino)-2-oxoethyl)-1H-indol-5-ylcarbamate], for which the CC50 at 5 days in data set [1] (setting [3]) was 18400 nM. In addition, in data set [2], the inhibition at 2 µM came to 17%.

Turning to `Cc1[nH]c2ccccc2c1CC(=O)N[C@@H](Cc1cc(F)cc(F)c1)c1ncccc1-c1cccc(C(N)=O)c1` [Example 497, (S)-3-(2-(2-(3,5-difluorophenyl)-1-(2-(2-methyl-1H-indol-3-yl)acetamido)ethyl)pyridin-3-yl)benzamide], the CC50 at 5 days in data set [1] (setting [3]) worked out at 27100 nM. Besides, the inhibition at 2 µM in data set [2] turned out to be 67%.

Consider `Cc1cc2ccn(CC(=O)N[C@@H](Cc3cc(F)cc(F)c3)c3ncccc3-c3ccc(F)c(C(N)=O)c3)c2cc1C` [Example 498F, (S)-5-(2-(2-(3,5-difluorophenyl)-1-(2-(5,6-dimethyl-1H-indol-1-yl)acetamido)ethyl)pyridin-3-yl)-2-fluorobenzamide], for which the CC50 at 5 days in data set [1] (setting [3]) worked out at 13200 nM. The inhibition at 2 µM in data set [2] was 60%.

Consider `COc1ccc(CC(=O)N[C@@H](Cc2cc(F)cc(F)c2)c2ncccc2-c2cccc(C(N)=O)c2)c(OC)c1` [Example 499, (S)-3-(2-(2-(3,5-difluorophenyl)-1-(2-(2,4-dimethoxyphenyl)acetamido)ethyl)pyridin-3-yl)benzamide], for which the CC50 at 5 days in data set [1] (setting [3]) is > 53000 nM. In data set [2], the inhibition at 2 µM is 22%.

In turn, `CC(=O)c1cn(CC(=O)N[C@@H](Cc2cc(F)cc(F)c2)c2ncccc2-c2cccc(C(N)=O)c2)c2ccccc12` [Example 500, (S)-3-(2-(1-(2-(3-acetyl-1H-indol-1-yl)acetamido)-2-(3,5-difluorophenyl)ethyl)pyridin-3-yl)benzamide] yielded a CC50 at 5 days in data set [1] (setting [4]) of 24300 nM. The inhibition at 2 µM in data set [2] amounted to 59%.

Turning to `NC(=O)c1cccc(-c2cccnc2[C@H](Cc2cc(F)cc(F)c2)NC(=O)Cc2ccccc2)c1` [Example 501, (S)-3-(2-(2-(3,5-difluorophenyl)-1-(2-phenylacetamido)ethyl)pyridin-3-yl)benzamide], the CC50 at 5 days in data set [1] (setting [3]) stood at 39600 nM. Besides, in data set [2], the inhibition at 2 µM turned out to be 11%.

In turn, `CC(C)(C)OC(=O)NCc1ccc2c(CC(=O)N[C@@H](Cc3cc(F)cc(F)c3)c3ncccc3-c3cccc(C(N)=O)c3)c[nH]c2c1` [Example 502F, (S)-tert-butyl (3-(2-(1-(3-(3-carbamoylphenyl)pyridin-2-yl)-2-(3,5-difluorophenyl)ethylamino)-2-oxoethyl)-1H-indol-6-yl)methylcarbamate] showed a CC50 at 5 days in data set [1] (setting [3]) of 3050 nM. For the same compound, in data set [2], the inhibition at 2 µM was 50%.

As a reminder, the % inhibition is the relative decrease from the control value, in per cent. `CCC(C(=O)N[C@@H](Cc1cc(F)cc(F)c1)c1ncccc1-c1ccc(F)c(C(N)=O)c1)n1nc(C(F)(F)F)c2c1CCCC2` (stereo partly drawn) [Example 504E, 5-(2-((1S)-2-(3,5-difluorophenyl)-1-(2-(3-(trifluoromethyl)-4,5,6,7-tetrahydro-1H-indazol-1-yl)butanamido)ethyl)pyridin-3-yl)-2-fluorobenzamide] yielded a CC50 at 5 days in data set [1] (setting [3]) of 12800 nM. Moreover, in data set [2] (percent inhibition of virus-induced cell killing, from dose response curve at 2 uM drug), the “% inhibition at 2 μM” value came out at 142%.

As for `NC(=O)c1cc(-c2cccnc2[C@H](Cc2cc(F)cc(F)c2)NC(=O)Cn2nc(C(F)F)cc2C(F)F)ccc1F` [Example 505, (S)-5-(2-(1-(2-(3,5-bis(difluoromethyl)-1H-pyrazol-1-yl)acetamido)-2-(3,5-difluorophenyl)ethyl)pyridin-3-yl)-2-fluorobenzamide], the CC50 at 5 days in data set [1] (setting [3]) was > 47400 nM. The inhibition at 2 µM in data set [2] turned out to be 28%.

As for `Cc1nn(CC(=O)N[C@@H](Cc2cc(F)cc(F)c2)c2ncccc2-c2cccc(C(N)=O)c2)c(C)c1C` [Example 506, (S)-3-(2-(2-(3,5-difluorophenyl)-1-(2-(3,4,5-trimethyl-1H-pyrazol-1-yl)acetamido)ethyl)pyridin-3-yl)benzamide], the CC50 at 5 days in data set [1] (setting [3]) was > 53000 nM. Moreover, in data set [2], the inhibition at 2 µM came out at 32%.

For `CC(C(=O)N[C@@H](Cc1cc(F)cc(F)c1)c1ncccc1-c1ccc(F)c(C(N)=O)c1)n1ccc(C(F)(F)F)n1` (stereo partly drawn) [Example 507B, 5-(2-((1S)-2-(3,5-difluorophenyl)-1-(2-(3-(trifluoromethyl)-1H-pyrazol-1-yl)propanamido)ethyl)pyridin-3-yl)-2-fluorobenzamide], the CC50 at 5 days in data set [1] (setting [3]) was > 45300 nM. In addition, the inhibition at 2 µM in data set [2] worked out at 22%.

Turning to `O=C(Cn1nc(C(F)F)c2c1C(F)(F)CCC2(F)F)N[C@@H](Cc1cc(F)cc(F)c1)c1ncccc1-c1ccc2c(c1)CNC2=O` [Example 508D, (S)-2-(3-(difluoromethyl)-4,4,7,7-tetrafluoro-4,5,6,7-tetrahydro-1H-indazol-1-yl)-N-(2-(3,5-difluorophenyl)-1-(3-(1-oxoisoindolin-5-yl)pyridin-2-yl)ethyl)acetamide], half-maximal cytotoxicity in data set [1] (setting [3]) (CC50 at 5 days) was put at 5130 nM. Moreover, the inhibition at 2 µM in data set [2] amounted to 96%.

In data set [1] (setting [4]), `CCc1cccc2c(C(C)=O)cn(CC(=O)N[C@@H](Cc3cc(F)cc(F)c3)c3ncccc3-c3ccc(F)c(C(N)=O)c3)c12` [Example 509, (S)-5-(2-(1-(2-(3-acetyl-7-ethyl-1H-indol-1-yl)acetamido)-2-(3,5-difluorophenyl)ethyl)pyridin-3-yl)-2-fluorobenzamide] showed a CC50 at 5 days of 24600 nM. For the same compound, the inhibition at 2 µM in data set [2] was 48%.

`NC(=O)c1cccc(-c2cccnc2[C@H](Cc2cc(F)cc(F)c2)NC(=O)Cc2cccc(Cl)c2)c1` [Example 510, (S)-3-(2-(1-(2-(3-chlorophenyl)acetamido)-2-(3,5-difluorophenyl)ethyl)pyridin-3-yl)benzamide]: the CC50 at 5 days in data set [1] (setting [3]) stood at 35900 nM. Further, the inhibition at 2 µM in data set [2] worked out at 3%.

With `CCC(C(=O)N[C@@H](Cc1cc(F)cc(F)c1)c1ncccc1-c1ccc(F)c(C(N)=O)c1)n1nc(C(F)(F)F)cc1C1CC1` (stereo partly drawn) [Example 511C, 5-(2-((1S)-1-(2-(5-cyclopropyl-3-(trifluoromethyl)-1H-pyrazol-1-yl)butanamido)-2-(3,5-difluorophenyl)ethyl)pyridin-3-yl)-2-fluorobenzamide], the CC50 at 5 days in data set [1] (setting [3]) came out at 11800 nM. The inhibition at 2 µM in data set [2] worked out at 17%.

Compound `O=C(Cn1nc(C(F)F)cc1C(F)F)N[C@@H](Cc1cc(F)cc(F)c1)c1ncccc1-c1cnc2[nH]ccc2c1` [Example 512C, (S)—N-(1-(3-(1H-pyrrolo[2,3-b]pyridin-5-yl)pyridin-2-yl)-2-(3,5-difluorophenyl)ethyl)-2-(3,5-bis(difluoromethyl)-1H-pyrazol-1-yl)acetamide] displayed a CC50 at 5 days in data set [1] (setting [3]) of 19900 nM. Moreover, the inhibition at 2 µM in data set [2] stood at 60%.

Compound `O=C(Cc1c[nH]c2ccc(C(F)(F)F)cc12)N[C@@H](Cc1cc(F)cc(F)c1)c1ncccc1-c1ccc(Cl)cc1` [Example 513, (S)—N-(1-(3-(4-chlorophenyl)pyridin-2-yl)-2-(3,5-difluorophenyl)ethyl)-2-(5-(trifluoromethyl)-1H-indol-3-yl)acetamide] yielded a CC50 at 5 days in data set [1] (setting [3]) of 10700 nM. In addition, the inhibition at 2 µM in data set [2] stood at 63%.

In the case of `NC(=O)c1cc(-c2cccnc2[C@H](Cc2cc(F)cc(F)c2)NC(=O)Cn2ccc3cnccc32)ccc1F` [Example 514, (S)-5-(2-(1-(2-(1H-pyrrolo[3,2-c]pyridin-1-yl)acetamido)-2-(3,5-difluorophenyl)ethyl)pyridin-3-yl)-2-fluorobenzamide], the CC50 at 5 days in data set [1] (setting [3]) is > 46100 nM. In addition, the inhibition at 2 µM in data set [2] came to 3%.

With `Cc1[nH]c2ccc(F)cc2c1CC(=O)N[C@@H](Cc1cc(F)cc(F)c1)c1ncccc1-c1cccc(C(N)=O)c1` [Example 517E, (S)-3-(2-(2-(3,5-difluorophenyl)-1-(2-(5-fluoro-2-methyl-1H-indol-3-yl)acetamido)ethyl)pyridin-3-yl)benzamide], it took 19100 nM to reach half-maximal cytotoxicity in data set [1] (setting [3]) (CC50 at 5 days). Moreover, the inhibition at 2 µM in data set [2] is 87%.

Compound `NC(=O)c1cc(-c2cccnc2[C@H](Cc2cc(F)cc(F)c2)NC(=O)Cn2cnc3cc(Cl)c(Cl)cc32)ccc1F` [Example 518, (S)-5-(2-(1-(2-(5,6-dichloro-1H-benzo[d]imidazol-1-yl)acetamido)-2-(3,5-difluorophenyl)ethyl)pyridin-3-yl)-2-fluorobenzamide] returned a CC50 at 5 days in data set [1] (setting [3]) of 10500 nM. For the same compound, the inhibition at 2 µM in data set [2] is 11%.

On to `CC(C(=O)N[C@@H](Cc1cc(F)cc(F)c1)c1ncccc1-c1ccc(F)c(C(N)=O)c1)n1nc(C(F)(F)F)cc1C1CC1` (stereo partly drawn) [Example 519, 5-(2-((1S)-1-(2-(5-cyclopropyl-3-(trifluoromethyl)-1H-pyrazol-1-yl)propanamido)-2-(3,5-difluorophenyl)ethyl)pyridin-3-yl)-2-fluorobenzamide], for which the CC50 at 5 days in data set [1] (setting [3]) worked out at 20300 nM. Further, in data set [2], the inhibition at 2 µM stood at 65%.
